Experimental data as given in patent publication US20250041377A1, “PHARMACEUTICAL USE” (ENLITISA (SHANGHAI) PHARMACEUTICAL CO., LTD., priority 2018, published 2025).
Where a name gives a salt, the structure may show the parent alone.

How the values were obtained:
[1] = test system: bleomycin-induced pulmonary fibrosis; experiment: Idiopathic pulmonary fibrosis (IPF) model; assay type: in vivo, Sprague Dawley rats; conditions: Day 29
Description: Experimental animals and grouping: 40 adult male Sprague Dawley rats, after 7 days of adaptive feeding, were divided into 4 groups: sham-operation group (Sham), IPF model group (no treatment; Model), test group (Compound B) and positive control group (Positive Control).
The test were administered Compound B, at a dose of 130 μg/rat, which was introduced by aerosolized inhalation. Oral administration of pirfenidone (Etuary®, Beijing Continent Pharmaceutical Co., Ltd., Beijing, China) as a 120 mg/kg single-bolus dose served as the positive control.
A pulmonary fibrosis model was established by intratracheal instillation of bleomycin. The rats were anaesthetised and placed on an operating table in the supine position, to expose the trachea. Bleomycin (5 mg/kg) saline solution was injected into the trachea through the gap between the tracheal cartilage rings. The sham-operation group were given an equal volume of normal saline. Shortly after administration, the rats were lifted vertically and were rotated, in order to evenly disperse the drug. Once the rats had recovered, after approximately 5 days, they were administrated the different drugs according to the plan for 28 days, consecutively.
The exhaust volume of the atomizing device was 0.15 mL per minute. The inhalation time for each rat was 1 minute.
At Day 29 following drug administration, rats were anesthetized by i.p. injection of chloral hydrate. After orbital blood collection, the rats were sacrificed. The thoracic cavity was quickly opened and the lung was collected for further analysis. The lung wet weight was measured, and the lung coefficient was calculated (lung wet weight/rat weight×1000). The tissue was stored in refrigerator at −80° C. for further use.
A piece of lung tissue was accurately weighed, and 9 times the weight of saline was added. Then, the tissue was homogenized and centrifuged for 10 minutes at 3000 rpm. The homogenate was used to detect the expression of the transformation growth factor (TGF-β1), tumor necrosis factor-α (TNF-α) and alpha-smooth muscle actin (α-SMA). Standard ELISA methods were used for the detection. The contents of malonaldehyde (MDA) and the activity of superoxide dismutase (SOD) in lung tissue were also detected.

[2] = test system: ammonia induced cough; experiment: Antitussive experiment, ammonia induced cough method; assay type: in vivo, ICR mice
Description: 36 ICR mice were randomly divided into 3 groups according to their body weight, labelled a CMC-Na (Negative) control group, a dextromethorphan hydrobromide (Positive) control group and a Compound B (B) group. Each group contained 12 mice, with 6 males and 6 females in each.
Compound B was administered via atomization inhalation using a YLS-8A Multifunctional cough and sputum inducing device (Jinan Yiyan Science and Technology Co., Ltd.) (0.15 ml/min) for 1 minute, once daily for 5 days. And the positive control drug was administered once daily by intragastric administration at 10 mg/kg for 5 days.
The mice were placed in an inverted beaker 1, 2, and 4 hours after the last drug administration. 1 mL of aqueous ammonia (25.0 to 28.0%) was placed on top of a boiling water bath and was evaporated into the beaker.
The time for mice to receive ammonia exposure was determined by a method characterized by analyzing data immediately after one test or a batch of tests. The results of the previous analysis determined how to conduct the next test or batch of tests.
The difference between the logarithmic value of two adjacent time periods was 0.1.
The number of coughs within 1 minute was detected using a stethoscope. If a mouse coughed three or more times over one minute, this was labelled as called ‘cough’, and less than three times in one minute was labelled ‘cough free’.
The EDT50 was defined as the ammonia stimulating time at which half mice developed a “cough”, calculated by the equation: […]
(c equals the sum of r and x, r is the number of animals in each stimulating time group, x is the logarithm of stimulation time and n was the number of animals in each group). lg is a base 10 logarithmic value.
In Table 15, R is the EDT50 in treatment group divided by the EDT50 in the Control group expressed as a percentage.

[3] = lung tissue homogenate, Compound B 130 μg/rat aerosolized inhalation, pirfenidone gavage, 28 days

Structure (SMILES) | TGF-β1 [1, 3] [ng/mg protein] | TNF-α [1, 3] [pg/mg protein] | α-SMA [1, 3] [pg/mg protein] | MDA ([1]; lung tissue) [U/mg protein] | SOD ([1]; lung tissue) [U/mg protein] | R ([2]; 1 hour after admin., EDT50 in treatment group divided by EDT50 in Control group) [%] | EDT50 ([2]; 1 hour after last administration, B 195 μg/mouse atomization inhalation, Positive 10 mg/kg intragastric, once daily 5 days) [s] | R ([2]; 2 hours after admin., EDT50 treatment/Control) [%] | EDT50 ([2]; 2 hours after last administration) [s] | R ([2]; 4 hours after admin., EDT50 treatment/Control) [%] | EDT50 ([2]; 4 hours after last administration) [s]
Cc1ccc(=O)n(-c2ccccc2)c1 [Positive Control, pirfenidone, reference compound] | 0.41 ± 0.03 | 208.41 ± 17.73 | 10.98 ± 0.93 | 0.24 ± 0.05 | 48.59 ± 2.36 |  |  |  |  |  | 
COc1ccc2c(c1)[C@]13CCCC[C@@H]1[C@H](C2)N(C)CC3 [Positive, dextromethorphan hydrobromide, reference compound] |  |  |  |  |  | 241.7 | 50.1 | 207.3 | 44.7 | 184.8 | 41.4
